The values that follow come from a melting point compilation (Tetko et al.; mined from patent text by program, amines drawn as free bases though some values may be those of a salt).

Structures are written as SMILES.

By melting point is commonly meant the temperature of the solid-liquid transition. `COC(=O)c1ccc(OCCCN(C(=O)c2ccc(C(C)(C)C)cc2)c2ccc(Cl)cc2)cc1` showed a melting point of 201 to 203 °C.

In turn, `NS(=O)(=O)c1cc(Cl)cc(Cl)c1O` registered a melting point of over 225 °C.

The compound `CNc1[nH]c(-c2ccccc2)c(C)c1C#N` displayed a melting point of 138 to 139 °C.

`CC(C)(C)OC(=O)Nc1cc([N+](=O)[O-])c2ncccc2c1` registered a melting point of 134 to 135 °C.

Compound `COc1ccc2ncc(CO)c(OC(C)C)c2c1` registered a melting point of 66 to 68 °C.

Compound `CC(C)(C)OC(=O)Oc1ccc([N+](=O)[O-])cc1` returned a melting point of 73 to 74.5 °C.

With `O=C(CCc1cccc([N+](=O)[O-])c1)Nc1ccc(Nc2ccccc2)cc1`, the melting point lay within 130 to 132 °C.

`C=C(C)c1cc(S(=O)(=O)c2ccc(N)cc2)cc(N2CCCC2)n1` showed a melting point of 200 to 201 °C.

Take `FC(F)(F)Oc1ccc(Nc2cc(-n3ccc(C(F)(F)F)n3)c3ccccc3n2)cc1`: the melting point lay in the range of 128 to 130 °C.

The compound `CCOC(=O)N1C(=O)[C@H](O)[C@@H]1c1ccccc1` showed a melting point of 112 to 113 °C.

Compound `CN(C)C=NS(=O)(=O)c1cc(CCNC(=O)C(F)(F)F)ccc1OCC1CCCO1` (configuration not stated) returned a melting point of 138 to 140 °C.

Regarding `O=C1C(c2ccc(O)cc2)=C(c2ccccc2)c2c(O)cc(O)cc21`, the melting point was in the range of 223 to 225 °C.

The compound `Cc1ccc(C(Cn2cncn2)c2ccccc2)cc1` (configuration not stated) came in with a melting point of 98 to 100 °C.

As to `CCCCn1cc(C(=O)O)c(=O)c2oc3ccc(Cl)cc3c(=O)c21`, the melting point lay within 271 to 273 °C.

`NNC(=O)c1ccccc1-c1ccc(N)cc1` returned a melting point of 135 to 137 °C.

`Fc1ccc(C2OC3(CCN(Cc4ccccc4)CC3)N3CCCCC23)cc1` (configuration not stated) displayed a melting point of 158 to 159 °C.

`Nc1cn(-c2cccnc2)nc1Cl` registered a melting point of 70 to 72 °C.

As for `CC(C)CN1C(=O)[C@@H](CC(=O)O)O[C@H](c2ccccc2OCc2ccccc2)c2cc(Cl)ccc21` (relative stereo), the melting point fell in the range of 194 to 197 °C.

Regarding `COC(=O)c1cncn1C1c2ccccc2CC1(C)C` (single isomer, unassigned; (-)), the melting point was in the range of 74 to 76 °C.

Compound `Fc1ccc(N2CCN(CCCc3[nH]nc4c3CCCC4)CC2)cc1` yielded a melting point of 106 to 108 °C.

As to `CCCCCCNC(=O)OC1CCN(C(=O)Oc2ccc(Oc3ccc(C)cc3)cc2)CC1`, the melting point was in the range of 84 to 85 °C.

The compound `CCOC(=O)c1cn(-c2ccc(F)c(NC(=O)OC(C)(C)C)c2F)c2nc(Cl)c(F)cc2c1=O` returned a melting point of 128 to 131 °C.

Compound `COC(=N)NC(=O)NC(C)C` showed a melting point of 64 to 67 °C.

As for `CCOC(=O)Cn1nnnc1S(=O)(=O)Cc1ccccc1`, the melting point was in the range of 105 to 107 °C.

In the case of `CN(C)CCNC(=O)c1cccc(-c2ccc3c(c2)N(Cc2ccc(Cl)cc2Cl)CC3)c1`, the melting point lay in the range of 122 to 123 °C.

On to `Cn1sc(=O)n(C)c1=O`, for which the melting point was in the range of 64 to 65 °C.

As to `CCc1nc2c(N)nc(C)c(C)c2n1CCCC(=O)N1CCOCC1`, the melting point is 209 to 210 °C.

In turn, `CNC(=O)Oc1ccc(NC(=O)C(C)Cl)c(C)c1` (configuration not stated) came in with a melting point of 167 to 170 °C.

The compound `NNc1ncc(-c2ccc(F)cc2)nn1` yielded a melting point of 231 to 235 °C.

`CCOCOC1(C(=O)CO)C(CC)CC2C3CC(CC)C4=CC(=O)C=CC4(C)C3C(O)CC21C` (configuration not stated): the melting point was 100 to 102 °C.

For `Fc1ccc(-c2cc3cccc(Cl)n3n2)cc1`, the melting point lay in the range of 156 to 157 °C.

With `COc1ccc(SCCNC(=O)N2CCCC2=O)cc1`, the melting point was 64 to 65 °C.

As for `COc1cc(Cl)c(CCNCC(O)c2ccccc2)cc1OC` (configuration not stated), the melting point was in the range of 110 to 113 °C.

`CN(C)C(=O)N(O)Cc1cc2ccccc2s1` gave a melting point of 145 to 147 °C.

`Cc1ccc2cccc(OCc3c(Cl)ccc(C=O)c3Cl)c2n1` registered a melting point of 184 to 186 °C.

As for `ClCc1cc(Cl)nc(Cl)n1`, the melting point was 32 to 33 °C.

Take `CCCCCCCCOc1ccc(Cl)c2c(=O)c3ccccc3sc12`: the melting point fell in the range of 86 to 87.5 °C.
